Measured values reported in patent US8067424B2, “Selective inhibitors for cyclin-dependent kinases” (Emory University, priority 2007, dated 2011).
Like-named read-outs stand apart in the source and are kept apart here.

Key:
Type in all cases: biochemical
[1] = target: PKCα (Homo sapiens, UniProt P17252); test: Kinase screen: PKCa assay
Description: (§1) Generally, the same procedure was used for all assays. Since the total assay volume was 25.5 microliters, 0.5 microliters of inhibitors at 51× assay concentration were added to the plates before any other addition.
(§2) The basic procedure was to add 0.5 microliters inhibitor/control in DMSO to plate. Fifteen microliters of enzyme/substrate/buffer mix were added and incubated for 5 min. Ten microliters MgATP at the relevant concentration were added and incubated for 30 min. The assay was stopped by adding 5 microliters of 3% orthophosphoric acid. The assay was transferred to a p81 filter plate and read in a scintillation counter of 30 sec/well. Note that this assay procedure was not followed for MKK1, which instead involved a two-step assay, and PKC alpha, which required the addition of lipid vesicles.
PKCa assay: PKCa (5-20 mU diluted in 20 mM Hepes pH 7.4, 0.03% Triton X-100) was assayed against Histone H1 in the presence of PtdSerine and DAG (0.1 mg/ml. and 10 μg/ml) and 0.1 mM CaCl2. The assay was carried out in a final volume of 25.5 μl containing 20 mM Hepes pH 7.4, 0.03% Triton X-100, 0.1 mg/ml Histone H1, 10 mM magnesium acetate and 0.02 mM[33P-g-ATP] (50-1000 cpm/pmole) and incubated for 30 min at room temperature. Assays were stopped by addition of 5 μl of 0.5 M (3%) orthophosphoric acid and then harvested onto P81 Unifilter plates with a wash buffer of 50 mM orthophosphoric acid.
PtdSer/DAG preparation: PtdSer stock was 10 mg/ml in MeOH/Chloroform (1:2). The required amount was dried down and re-suspended in an appropriate volume of 10 mM Hepes pH 7.4, vortexed, and briefly sonicated (2×10^−15 seconds at 10-15 seconds apart). DAG stock was 10 mg/ml in MeOH/chloroform (1:2). The required amount was dried down and sonicated PtdSer solution was added, vortexed and sonicated.

[2] = target: PLK1 (Okadaic Acid) (Homo sapiens, UniProt P53350); test: Kinase screen: PLK1 (Okadaic Acid) assay
Chain of PLK1 (Okadaic Acid) (P53350 whole entry, species assumed): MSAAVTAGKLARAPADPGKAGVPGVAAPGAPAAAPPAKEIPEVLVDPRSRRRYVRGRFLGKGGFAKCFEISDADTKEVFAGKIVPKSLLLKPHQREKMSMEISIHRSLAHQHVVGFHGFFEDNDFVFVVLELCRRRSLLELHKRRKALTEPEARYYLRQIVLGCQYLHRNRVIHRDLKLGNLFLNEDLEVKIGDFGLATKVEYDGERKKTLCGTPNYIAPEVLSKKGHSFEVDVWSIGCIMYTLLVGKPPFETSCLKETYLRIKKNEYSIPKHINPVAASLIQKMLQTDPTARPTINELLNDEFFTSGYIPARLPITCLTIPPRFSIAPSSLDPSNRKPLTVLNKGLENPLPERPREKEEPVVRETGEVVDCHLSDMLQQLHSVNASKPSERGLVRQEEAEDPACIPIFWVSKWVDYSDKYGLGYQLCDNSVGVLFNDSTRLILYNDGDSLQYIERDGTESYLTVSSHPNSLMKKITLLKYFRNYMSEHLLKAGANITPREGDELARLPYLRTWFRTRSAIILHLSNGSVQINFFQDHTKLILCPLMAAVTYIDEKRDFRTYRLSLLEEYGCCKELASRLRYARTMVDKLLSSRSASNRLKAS
Description: as §1, §2
(50-1000 cpm/pmole) and incubated for 30 min at room temperature. Assays were stopped by addition of 5 μl of 0.5 M (3%) orthophosphoric acid and then harvested onto P81 Unifilter plates with a wash buffer of 50 mM orthophosphoric acid.

[3] = target: JNK1 (Homo sapiens, UniProt P45983); test: Kinase screen: JNK1a1/SAPK1c assay
Chain of JNK1 (P45983 1-384 isoform P45983-2, species assumed): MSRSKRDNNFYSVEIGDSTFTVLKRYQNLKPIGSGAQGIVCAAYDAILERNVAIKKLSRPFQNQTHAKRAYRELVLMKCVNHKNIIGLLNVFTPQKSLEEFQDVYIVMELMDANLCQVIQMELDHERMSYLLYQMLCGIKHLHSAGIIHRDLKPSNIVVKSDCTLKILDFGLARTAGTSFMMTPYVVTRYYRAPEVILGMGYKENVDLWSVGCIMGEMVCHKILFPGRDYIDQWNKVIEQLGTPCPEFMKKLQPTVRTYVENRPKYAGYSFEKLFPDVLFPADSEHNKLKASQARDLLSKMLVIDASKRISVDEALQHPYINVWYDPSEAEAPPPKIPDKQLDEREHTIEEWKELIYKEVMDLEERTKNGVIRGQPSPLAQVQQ
Description: as §1, §2
JNK1a1/SAPK1c assay: JNK1a1/SAPK1c (5-20 mU diluted in 50 mM Tris pH 7.5, 0.1 mM EGTA, 1 mg/ml BSA, 0.1% b-mercaptoethanol) was assayed against ATF2 (activating transcription factor in a final volume of 25.5 μl in 50 mM Tris pH 7.5, 0.1 mM EGTA, 0.1% b-Mercaptoethanol, ATF2 (3 μM), 10 mM magnesium acetate and 0.02 mM [33P-g-ATP] (500-1000 cpm/pmole) and incubated for 30 min at room temperature. Assays were stopped by addition of 5 μl of 0.5 M (3%) orthophosphoric acid and then harvested onto P81 Unifilter plates with a wash buffer of 50 mM orthophosphoric acid.

[4] = target: T1, IKKe (Homo sapiens, UniProt Q14164); test: Kinase screen: IKKe / IKKepsilon (DU14231) assay; conditions: 10 micromolar compound; for remaining activity at 10 µM: read-out: mean activity remaining (as a percentage of the original activity), IKKe
T1 construct: DU14231
T1 sequence (Q14164 1-716): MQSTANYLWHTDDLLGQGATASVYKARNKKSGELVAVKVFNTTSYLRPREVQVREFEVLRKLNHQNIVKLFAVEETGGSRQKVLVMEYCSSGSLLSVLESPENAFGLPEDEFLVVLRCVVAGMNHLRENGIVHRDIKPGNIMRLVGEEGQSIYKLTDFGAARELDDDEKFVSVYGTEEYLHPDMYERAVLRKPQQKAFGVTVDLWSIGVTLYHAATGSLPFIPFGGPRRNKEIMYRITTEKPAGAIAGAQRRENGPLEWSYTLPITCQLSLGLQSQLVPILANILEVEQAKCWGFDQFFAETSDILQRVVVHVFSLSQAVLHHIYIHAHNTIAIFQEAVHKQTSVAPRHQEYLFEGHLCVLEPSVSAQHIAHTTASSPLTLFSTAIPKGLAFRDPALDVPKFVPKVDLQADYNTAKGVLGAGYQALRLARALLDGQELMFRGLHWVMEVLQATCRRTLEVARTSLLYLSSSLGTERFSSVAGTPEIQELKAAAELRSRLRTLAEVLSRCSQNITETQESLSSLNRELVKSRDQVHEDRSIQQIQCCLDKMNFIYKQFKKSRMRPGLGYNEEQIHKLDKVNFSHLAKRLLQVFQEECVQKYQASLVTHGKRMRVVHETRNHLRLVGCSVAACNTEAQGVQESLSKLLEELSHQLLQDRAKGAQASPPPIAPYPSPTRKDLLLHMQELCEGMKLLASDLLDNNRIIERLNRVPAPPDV
Description: as §1, §2
(§3) IKKe assay: 5-20 mU of IKKe (diluted in 50 mM Tris (pH 7.5), 0.1 mM EGTA, 1 mg/ml BSA) was assayed against MBP in a final volume of 25.5 μl containing 50 mM Tris (pH 7.5), 0.1 mM EGTA, 0.33 mg/ml MBP, 10 mM magnesium acetate and 0.05 mM [33P-g-ATP] (500-1000 cpm/pmole) and incubated for 30 mins at room temperature. Assays were stopped by addition of 5 μl of 0.5M (3%) orthophosphoric acid. Assays were harvested onto P81 Unifilter plates using a wash buffer of 50 mM orthophosphoric acid.
as §3, with “IKKepsilon (DU14231)” for “IKKe”, “IKKepsilon (DU14231)(diluted” for “IKKe (diluted”

[5] = 10 micromolar compound, read-out: mean activity remaining (as a percentage of the original activity), PKCa
[6] = 10 micromolar compound, read-out: mean activity remaining (as a percentage of the original activity), PLK 1 (Okadaic Acid)
[7] = 10 micromolar compound, read-out: mean activity remaining (as a percentage of the original activity), JNK1

Structure (SMILES) | remaining activity at 10 µM [1, 5] [%] | remaining activity at 10 µM [2, 6] [%] | remaining activity at 10 µM [3, 7] [%] | remaining activity at 10 µM [4] [%] | also measured
CC(C)c1cnn2c(NCc3ccccc3)cc(NCCCCCCCN)nc12 [BS-181] | – | – | – | – | remaining activity at 10 µM ([1]; PKCα, 10 μM, read-out: Mean Remaining Enzyme Activity (%)): 98%; remaining activity at 10 µM ([2]; PLK1 (Okadaic Acid), 10 μM, read-out: Mean Remaining Enzyme Activity (%)): 108%; remaining activity at 10 µM ([3]; JNK1, 10 μM, read-out: Mean Remaining Enzyme Activity (%)): 100%
C=C[C@H](CO)Nc1cc(NCc2ccccc2)n2ncc(C(C)C)c2n1 [ICEC0065] | 101 | 104 | 95 | 101 | –
CC[C@H](CO)Nc1cc(NCc2ccccc2)n2ncc(C(C)C)c2n1 [ICEC0067] | 93 | 93 | 98 | 103 | –
CC(C)c1cnn2c(NCc3ccccc3)cc(N[C@@H](CO)[C@H](O)CO)nc12 [ICEC0318, (3S)-3-(7-(Benzylamino)-3-isopropylpyrazolo[1,5-a]pyrimidin-5-ylamino)butane-1,2,4-triol] | 96 | 97 | 93 | 94 | –
CC(C)c1cnn2c(NCc3ccccc3F)cc(NCCCCCN)nc12 [ICEC-0232] | – | – | – | – | mean activity remaining (as a percentage of the original activity), PKCa ([1]; 10 micromolar compound): 80%; mean activity remaining (as a percentage of the original activity), PLK 1 (Okadaic Acid) ([2]; 10 micromolar compound): 125%; mean activity remaining (as a percentage of the original activity), JNK1 ([3]; 10 micromolar compound): 87%; mean activity remaining (as a percentage of the original activity), IKKe [4]: 92%
